Publication PMC6550521, “Stress-Induced Changes in the Lipid Microenvironment of β-(1,3)-D-Glucan Synthase Cause Clinically Important Echinocandin Resistance in Aspergillus fumigatus” (mBio, 2019)
Values joined by “and” are separate entries in the source; they are usually repeats but may differ in a detail not shown here. Identical values can stand only once.

Columns and labels:
[1] = tested on: lipid microenvironment of glucan synthase of RG101; experiment: Lipid analysis (LC-MS/MS) of partially purified glucan synthase; format: cell-based, Aspergillus fumigatus; details: RG101 grown with CAS 1 μg/ml
Protocol: (§1) Approximately 10 μg/ml of partially purified glucan synthase of RG101 and clinical isolates was analyzed for lipid content by LC-MS/MS ([50]) at the Lipidomics Shared Resource of the Medical University of South Carolina (http://www.hollingscancercenter.org/research/shared-resources/lipidomics/index.html).

[2] = tested on: lipid microenvironment of glucan synthase of clinical isolates 117, 2770 and 32458; experiment: as above; format: cell-based, Aspergillus fumigatus; details: isolates 117, 2770, 32458 treated with CAS
Protocol: as §1

A. fumigatus ATCC 13073 = experiment: Antifungal susceptibility testing (MEC, CLSI M38-A2); format: cell-based, Aspergillus fumigatus
Protocol: (§2) Minimum effective concentrations (MECs) for A. fumigatus strains were determined according to CLSI document M38-A2 ([48]) and defined as the lowest drug concentration that led to the growth of small, rounded, compact hyphal forms compared to the hyphal growth seen in the drug-free growth control wells. The following drugs (supplier) were tested: caspofungin (Merck & Co., Inc.), micafungin (Astellas Pharma US, Inc.), anidulafungin (Pfizer Inc.), itraconazole (Sigma-Aldrich), voriconazole (Pfizer Inc.), and amphotericin B (Sigma-Aldrich). In addition, rezafungin and ibrexafungerp were obtained from Cidara Therapeutics and Scynexis Inc., respectively.

[3] = tested on: A. fumigatus S679P (fks1 Ser-679-Pro mutant); experiment: as above; format: cell-based, Aspergillus fumigatus; details: S679P, fks1 Ser-679-Pro
Protocol: as §2

A. fumigatus RG101 = experiment: Acute pulmonary aspergillosis model in neutropenic DBA/2 mice, lung fungal burden by qPCR; format: in vivo, Aspergillus fumigatus
Protocol: Resistance of RG101 to CAS in vivo was tested in an acute pulmonary aspergillosis model. Thirty inbred DBA/2 mice were rendered neutropenic and infected with 1 × 10^6 RG101 conidia intratracheally. The mice were then treated with CAS (5 mg/kg of body weight), MFG (5 mg/kg), or vehicle daily for 5 days, and lung burdens were determined using quantitative PCR (qPCR). Details of the experiment are provided in Text S1 in the supplemental material.
All animal experiments performed were approved by the Rutgers University Institutional Animal Care and Use Committee. Thirty female DBA/2 mice [The Jackson Laboratory, Bar Harbor, ME] were used in the experiment. The mice were housed in cages equipped with HEPA filters and were allowed free access to food and water. To establish neutropenia, mice were immunosuppressed with cyclophosphamide on days -4 (150 mg/kg), -1 and +2 (100 mg/kg) intraperitoneally (ip) and hydrocortisone on day -1 (200 mg/kg) via subcutaneous injection (sc). The animals were given prophylaxis sc ceftazidime (50 mg/kg) on all days to prevent secondary bacterial infections. A. fumigatus RG101 was streaked out from a frozen glycerol stock and cultured on Potato dextrose agar (PDA) slant for 2 days. The spores were harvested in phosphate-buffered saline (PBS) with 0.05% (v/v) Tween 20 and counted in a hemocytometer. The mice were briefly anesthetized IP Ketamine (65 mg/kg)/Xylazine (5 mg/kg) and infected with 1×10^6 spores of RG101 in 25 µL volume via intratracheal instillation. The 30 RG101 infected mice were randomized into following treatment arms for IP treatment: vehicle, CAS (5 mg/kg), and MFG (5 mg/kg). The first treatment was given at 3 h post infection (PI) and continued daily treatments were administered. On day 5 PI, mice were humanely euthanized via CO2 narcosis. Lungs were excised and homogenized in 1 ml of sterile PBS using a 2 ml tube containing ceramic spheres by MP Biomedicals (116913500). Tissue was then homogenized in 20 s bursts in a mini bead beater (MP FastPrep-24) followed by cooling on ice. DNA was then isolated from an aliquot of the lung homogenate (100 μl) using the QIAamp DNA Mini Kit by Qiagen (51304) and analyzed by real-time quantitative PCR (qPCR) using primers specific for A. fumigatus 18S rRNA genes (Wiederhold et al 2004).

[4] = target: β-(1,3)-D-glucan synthase of clinical isolate 117 (Aspergillus fumigatus, UniProt Q4WLT4); experiment: Glucan synthase kinetic inhibition assay, enzyme from clinical isolate 117; format: biochemical; details: enzyme from isolate 117 grown at 4 μg/ml CAS
[5] = tested on: cell wall glucan and chitin of RG101; experiment: Cell wall carbohydrate analysis (mass spectrometry, calcofluor white); format: cell-based, Aspergillus fumigatus; details: CAS 4 μg/ml
Protocol: Strains ATCC 13073 and RG101 were grown in the absence and presence of CAS (4 μg/ml) in 6-well microtiter plates containing yeast extract-peptone-dextrose (YPD) broth for 22 h at 37°C. The cells were then lysed using a French press. The broken cell wall sample was processed for chemical analysis using mass spectrometry at the Complex Carbohydrate Research Center (CCRC) at the University of Georgia, Athens, GA.

β-(1,3)-D-glucan synthase of clinical isolate 117, sequence (Q4WLT4 1-1904): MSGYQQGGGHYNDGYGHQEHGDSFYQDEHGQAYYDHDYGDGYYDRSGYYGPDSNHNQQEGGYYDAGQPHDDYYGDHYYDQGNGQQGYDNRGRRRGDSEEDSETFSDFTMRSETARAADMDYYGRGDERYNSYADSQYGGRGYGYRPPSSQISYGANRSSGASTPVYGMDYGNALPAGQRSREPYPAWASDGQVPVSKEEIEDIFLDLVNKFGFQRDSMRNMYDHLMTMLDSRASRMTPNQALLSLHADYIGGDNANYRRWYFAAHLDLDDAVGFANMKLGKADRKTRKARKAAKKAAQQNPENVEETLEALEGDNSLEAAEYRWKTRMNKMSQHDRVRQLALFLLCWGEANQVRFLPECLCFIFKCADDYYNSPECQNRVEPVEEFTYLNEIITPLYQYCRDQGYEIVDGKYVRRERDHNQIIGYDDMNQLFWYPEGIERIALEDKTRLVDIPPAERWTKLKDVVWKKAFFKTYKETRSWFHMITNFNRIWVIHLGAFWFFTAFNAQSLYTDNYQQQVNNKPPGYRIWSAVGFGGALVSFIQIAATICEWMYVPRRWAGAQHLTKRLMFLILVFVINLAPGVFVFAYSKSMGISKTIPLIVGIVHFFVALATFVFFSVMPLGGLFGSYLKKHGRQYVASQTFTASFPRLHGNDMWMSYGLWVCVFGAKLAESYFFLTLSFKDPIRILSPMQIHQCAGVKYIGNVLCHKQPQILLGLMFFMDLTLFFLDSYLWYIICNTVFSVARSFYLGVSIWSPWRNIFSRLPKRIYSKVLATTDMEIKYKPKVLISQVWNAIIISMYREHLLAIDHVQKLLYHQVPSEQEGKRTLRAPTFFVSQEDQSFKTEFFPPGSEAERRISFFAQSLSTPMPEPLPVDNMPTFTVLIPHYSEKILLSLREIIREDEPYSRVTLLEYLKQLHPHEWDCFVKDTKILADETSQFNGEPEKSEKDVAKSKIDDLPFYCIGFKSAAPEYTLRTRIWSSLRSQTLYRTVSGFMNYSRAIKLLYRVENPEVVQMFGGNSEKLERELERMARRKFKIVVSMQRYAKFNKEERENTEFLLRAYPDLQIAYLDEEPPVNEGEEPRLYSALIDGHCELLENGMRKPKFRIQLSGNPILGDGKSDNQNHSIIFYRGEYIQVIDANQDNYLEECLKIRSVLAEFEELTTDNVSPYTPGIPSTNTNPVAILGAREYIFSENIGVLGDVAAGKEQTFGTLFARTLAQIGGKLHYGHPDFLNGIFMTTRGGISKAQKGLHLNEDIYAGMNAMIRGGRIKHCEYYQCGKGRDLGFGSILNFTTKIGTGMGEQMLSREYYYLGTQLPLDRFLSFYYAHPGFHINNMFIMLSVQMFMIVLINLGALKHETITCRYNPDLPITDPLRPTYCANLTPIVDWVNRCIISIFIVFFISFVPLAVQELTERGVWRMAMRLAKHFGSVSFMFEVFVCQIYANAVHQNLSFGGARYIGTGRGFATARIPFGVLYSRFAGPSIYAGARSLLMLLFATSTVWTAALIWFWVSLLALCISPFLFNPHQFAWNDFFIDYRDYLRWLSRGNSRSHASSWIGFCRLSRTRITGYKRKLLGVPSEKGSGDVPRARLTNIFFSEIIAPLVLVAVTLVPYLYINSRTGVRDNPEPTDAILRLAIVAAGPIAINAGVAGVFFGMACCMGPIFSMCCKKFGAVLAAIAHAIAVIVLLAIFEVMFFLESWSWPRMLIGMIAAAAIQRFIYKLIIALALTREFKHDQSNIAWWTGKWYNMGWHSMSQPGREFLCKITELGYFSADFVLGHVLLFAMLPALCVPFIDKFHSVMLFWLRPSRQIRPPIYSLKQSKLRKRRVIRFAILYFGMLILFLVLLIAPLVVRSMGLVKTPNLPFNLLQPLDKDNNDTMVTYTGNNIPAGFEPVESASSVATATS

Compound: CC[C@H](C)C[C@H](C)CCCCCCCCC(=O)N[C@H]1C[C@@H](O)[C@@H](NCCN)NC(=O)[C@@H]2[C@@H](O)CCN2C(=O)[C@H]([C@H](O)CCN)NC(=O)[C@H]([C@H](O)[C@@H](O)c2ccc(O)cc2)NC(=O)[C@@H]2C[C@@H](O)CN2C(=O)[C@H]([C@@H](C)O)NC1=O [CAS, caspofungin]
- Increase in abundance of dihydrosphingosine (DhSph), CAS-treated vs untreated [1]: 2 fold and 3 fold
- Increase in abundance of phytoceramide (C24), CAS-induced vs uninduced [1]: 3 fold
- Increase in abundance of phytosphingosine (PhSph), CAS-treated vs untreated [1]: 10 fold
- Abundance of DhSph and PhSph in enzyme preparations of CAS-treated clinical isolates [2]: significantly increased abundance
- Drug susceptibility testing result, ATCC 13073 (A. fumigatus ATCC 13073; 24 h, Fig 1B): 0.12 µg/mL
- MEC (minimum effective concentration) (A. fumigatus ATCC 13073; ATCC 13073, fks1 WT): 0.12 µg/mL
- MEC (minimum effective concentration) [3]: 16 µg/mL
- Decrease in lung burden versus vehicle-treated group (A. fumigatus RG101; RG101, 5 mg/kg daily for 5 days): No significant differences
- Average fungal lung burden (A. fumigatus RG101; RG101 intratracheal, 5 mg/kg daily IP for 5 days, qPCR): 22.6 ng fungal DNA per lung
- IC50 [4]: > 9.15 µM
- Chitin levels in RG101 upon CAS exposure ([5]; MS and calcofluor white): no significant increase
- Cell wall glucan content in RG101 treated with CAS ([5]; mass spectroscopy): no reduction
